Laboratory results from publication PMC3684613 (PLoS ONE, 2013).
Like-named read-outs stand apart in the source and are kept apart here.

How the values were obtained:
P. falciparum 3D7 [1] = experiment: DAPI stain fluorescent high content imaging assay, P. falciparum 3D7 (confirmatory screen, Avery); details: Plasmodium falciparum; for EC50: 3D7, read-out: EC50_nM; for inhibition of growth at 5 µM: 3D7, read-out: percent_inh @ 5 uM
P. falciparum 3D7 [2] = tested on: P. falciparum 3D7; design: method as in ChEMBL-NTD; details: ref ChEMBL-NTD, cited from earlier work
[3] = values follow the order of the source (GNF; GSK; StJude)

Row | SMILES | EC50 (P. falciparum 3D7 [1]) | inhibition of growth at 5 µM (P. falciparum 3D7 [1]) | other results
1 | Cc1ccc2cc3c(N)c4c(C)ccc(C)c4nc3nc2c1 [MMV666079] | 1310 nM | 98% | EC50 (P. falciparum 3D7 [2]; source GNF (GNF-Pf ids)): 431 nM
2 | O=C(NC(c1ccccc1)c1ccc2cccnc2c1O)c1ccccc1 (stereo not drawn) [MMV666080] | 1170 nM | 95% | EC50 (P. falciparum 3D7 [2]; source GNF): 533 nM; EC50 (P. falciparum 3D7 [2]; source GSK): 428 nM
3 | CCCc1c(C)nc2ccccc2c1O [MMV666081] |  | 88% | EC50 (P. falciparum 3D7 [2]; source GNF): 630 nM
4 | CCCC(c1nnnn1C1CCCCC1)N1CCN(C(=O)c2ccco2)CC1 (stereo not drawn) [MMV666093] |  | 82% | EC50 (P. falciparum 3D7 [2]; source GNF): 1330 nM
5 | CCCc1c(C)nc2ccc(Br)cc2c1O [MMV666095] | 1190 nM | 64% | EC50 (P. falciparum 3D7 [2]; source GNF (GNF-Pf ids)): 1510 nM
6 | COc1ccc(C2=C(c3ccc(OC)cc3)C3(c4ccccc4)C(=O)C2(c2ccccc2)C2C(=O)N(c4ccc(C)cc4)C(=O)C23)cc1 (stereo not drawn) [MMV666101] | 148 nM | 98% | EC50 (P. falciparum 3D7 [2]; source GNF (GNF-Pf id)): 12500 nM
7 | CN(C)c1ccc(-c2nc3cc(N)ccc3[nH]2)cc1 [MMV666102] |  | 64% | EC50 (P. falciparum 3D7 [2]; source GSK): 239 nM
8 | CCn1c(SCC(=O)Nc2cc(C(F)(F)F)ccc2Cl)nc2ccccc2c1=O [MMV666103] | 1000 nM | 91% | EC50 (P. falciparum 3D7 [2]; source GSK): 397 nM
9 | COCCN(C(=O)Cc1cccs1)C(C(=O)NCc1ccc(OC)cc1)c1ccc(C(C)C)cc1 (stereo not drawn) [MMV666105] | 1190 nM | 92% | EC50 (P. falciparum 3D7 [2]; source GSK): 845 nM
10 | O=C(NC1CCCCC1)C(c1cccs1)N(CCc1ccccc1)C(=O)c1ccco1 (stereo not drawn) [MMV666106] | 1070 nM | 90% | EC50 (P. falciparum 3D7 [2]; source GSK (TCMDC ids)): 1040 nM
11 | O=C(CCc1ccco1)NC1CCN(CC2(c3ccc(Cl)cc3)CCC2)CC1 [MMV666108] | 1140 nM | 96% | EC50 (P. falciparum 3D7 [2]; source GSK): 1450 nM
12 | CCOC(=O)C1(Cc2ccccc2)CCN(Cc2cccc(OC)c2O)CC1 [MMV666109] |  | 95% | EC50 (P. falciparum 3D7 [2]; source StJude (SJ ids)): 2290 nM
13 | C=C(C)CCC(C)N1CCC(N2CCC(C(=O)NCCc3ccccc3)CC2)CC1 (stereo not drawn) [MMV666110] | 1750 nM | 96% | EC50 (P. falciparum 3D7 [2]; source StJude): 4260 nM
14 | Oc1ccccc1CN1CCC2(CCCN(Cc3ccccc3F)C2)C1 (stereo not drawn) [MMV666116] | 548 nM | 98% | EC50 (P. falciparum 3D7 [2]; original screening data, source (GSK, GNF, StJude), several values separated by ';' in order of sources): 679 nM
15 | CC(C)(C)c1ccc(C(=O)Nc2c3c(nn2-c2cccc(Cl)c2)CSC3)cc1 [MMV666123] |  | 93% | EC50 (P. falciparum 3D7 [2]; source StJude (SJ ids)): 15000 nM
16 | CC(=O)c1ccc(NC(=O)CSc2nc(-c3ccccc3Cl)ns2)cc1 [MMV666124] |  |  | inhibition at 2.5 µM (P. falciparum 3D7 [1]; 3D7, read-out: % inh. At 2.5 uM): 88%; EC50 (P. falciparum 3D7 [2]; source GSK (TCMDC ids)): 1130 nM

Row | SMILES | EC50 (P. falciparum 3D7 [1]) | inhibition of growth at 5 µM (P. falciparum 3D7 [1]) | other results
17 | CC1=C(CC(=O)c2cccc([N+](=O)[O-])c2)C(=O)c2ccccc2C1=O [MMV666125] | 381 nM | 95% | EC50 (P. falciparum 3D7 [2]; source GNF (GNF-Pf ids)): 2840 nM
18 | CSC1=NC(=Nc2c(C)cccc2C)C2(CCC(C(C)(C)C)CC2)N1c1ccc(Cl)cc1 (stereo not drawn) [MMV666596] | 135 nM | 96% | EC50 (P. falciparum 3D7 [2]; source GNF (GNF-Pf id)): 1480 nM
19 | CCCCCCc1cc2cc(-c3nc4ccccc4[nH]3)c(=Nc3ccccc3C)oc2cc1O [MMV666597] | 551 nM | 96% | EC50 (P. falciparum 3D7 [2]; [3]): 2120 nM
20 | O=c1nc(C=Cc2ccc(Br)cc2)oc2ccccc12 [MMV666599] |  | 94% | EC50 (P. falciparum 3D7 [2]; source GSK (TCMDC ids)): 1050 nM
21 | CCOC(=O)c1c(C)n(-c2ccc(Cl)cc2)c2ccc(OC(=O)C=Cc3ccccc3)cc12 [MMV666600] | 216 nM | 97% | EC50 (P. falciparum 3D7 [2]; source GSK (TCMDC id)): 698 nM
22 | CCOC(=O)C1=C(c2ccccc2)N=c2sc(=Cc3cc(C)n(-c4ccc(F)cc4)c3C)c(=O)n2C1c1cccc(OC)c1OC (stereo not drawn) [MMV666601] | 154 nM | 94% | EC50 (P. falciparum 3D7 [2]; source GNF (GNF-Pf id)): 2320 nM
23 | CCOC(=O)C1=C(C)N=c2sc(=Cc3ccccc3O)c(=O)n2C1c1ccc(OC)c2ccccc12 (stereo not drawn) [MMV666604] | 1510 nM | 97% | EC50 (P. falciparum 3D7 [2]; source GSK (TCMDC ids)): 1260 nM
24 | O=[N+]([O-])c1ccc(C=NNc2nc3ccccc3[nH]2)cc1 [MMV666607] | 142 nM | 99% | EC50 (P. falciparum 3D7 [2]; source GNF (GNF-Pf id)): 818 nM; EC50 (P. falciparum 3D7 [2]; source GSK (TCMDC id)): 283 nM
25 | COc1ccccc1C(=O)ON=C(N)Cc1cccc2ccccc12 [MMV666686] | 814 nM | 97% | EC50 (P. falciparum 3D7 [2]; [3]): 352 nM
26 | COc1cc(C(=O)ON=C(N)Cc2cccc3ccccc23)cc(OC)c1OC [MMV666687] | 782 nM | 99% | EC50 (P. falciparum 3D7 [2]; [3]): 280 nM
27 | Cc1cc(C=C2SC(=Nc3ccccc3)N(C3CCCC3)C2=O)c(C)n1-c1ccc(Cl)cc1 [MMV666688] | 263 nM | 97% | EC50 (P. falciparum 3D7 [2]; source GSK (TCMDC id)): 876 nM
28 | COc1ccc(Nc2nc(NN=Cc3ccc(O)cc3)nc(Nc3ccc([N+](=O)[O-])cc3)n2)cc1 [MMV666689] | 532 nM | 98% | EC50 (P. falciparum 3D7 [2]; source GSK): 1120 nM
29 | COc1ccc(C=C2SC(=N)N(c3ccccc3OC)C2=O)cc1 [MMV666691] | 168 nM | 97% | EC50 (P. falciparum 3D7 [2]; source GSK (TCMDC id)): 300 nM
30 | CCCCCCc1cc2cc(-c3csc(C=Cc4ccccc4)n3)c(=O)oc2cc1O [MMV666692] | 387 nM | 92% | EC50 (P. falciparum 3D7 [2]; [3]): 970 nM
31 | COc1cccc(C=Cc2nc(=O)c3ccccc3o2)c1OC [MMV666693] | 23.8 nM | 96% | EC50 (P. falciparum 3D7 [2]; source GSK (TCMDC id)): 64.4 nM
32 | COc1ccc(CCn2c(=N)c(C(=O)NCc3cccnc3)cc3c(=O)n4cccc(C)c4nc32)cc1 [MMV667488] | 373 nM |  | EC50 (P. falciparum 3D7 [2]; [3]): 1400 nM
